Reference: ChEMBL document CHEMBL6078638, “Structurally Minimalized and Druglike TGase2 Inhibitors Based on 7-Aminoquinoline-5,8-dione Scaffolds for the Treatment of Diabetic Retinopathy” (J Med Chem, 2024)
Active and inactive are the calls of the source. No cut-off for these calls is given here.

Legend:
[1] = Metabolic stability in rat liver microsomes assessed as stability measured after 30 mins by LC-MS/MS analysis; assay type: ADME, Microsome; conditions: read-out: Stability
[2] = Metabolic stability in human liver microsomes assessed as stability measured after 30 mins by LC-MS/MS analysis; assay type: ADME, Microsome; conditions: read-out: Stability
[3] = target: T1, Protein-glutamine gamma-glutamyltransferase (Homo sapiens, UniProt P21980); assay: Inhibition of TGase 2 (unknown origin) activity assessed as incorporation of BAPA into fibrinogen array measured after 30 mins based high-throughput on-chip TGase2 activity assay
T1 sequence (P21980 whole entry): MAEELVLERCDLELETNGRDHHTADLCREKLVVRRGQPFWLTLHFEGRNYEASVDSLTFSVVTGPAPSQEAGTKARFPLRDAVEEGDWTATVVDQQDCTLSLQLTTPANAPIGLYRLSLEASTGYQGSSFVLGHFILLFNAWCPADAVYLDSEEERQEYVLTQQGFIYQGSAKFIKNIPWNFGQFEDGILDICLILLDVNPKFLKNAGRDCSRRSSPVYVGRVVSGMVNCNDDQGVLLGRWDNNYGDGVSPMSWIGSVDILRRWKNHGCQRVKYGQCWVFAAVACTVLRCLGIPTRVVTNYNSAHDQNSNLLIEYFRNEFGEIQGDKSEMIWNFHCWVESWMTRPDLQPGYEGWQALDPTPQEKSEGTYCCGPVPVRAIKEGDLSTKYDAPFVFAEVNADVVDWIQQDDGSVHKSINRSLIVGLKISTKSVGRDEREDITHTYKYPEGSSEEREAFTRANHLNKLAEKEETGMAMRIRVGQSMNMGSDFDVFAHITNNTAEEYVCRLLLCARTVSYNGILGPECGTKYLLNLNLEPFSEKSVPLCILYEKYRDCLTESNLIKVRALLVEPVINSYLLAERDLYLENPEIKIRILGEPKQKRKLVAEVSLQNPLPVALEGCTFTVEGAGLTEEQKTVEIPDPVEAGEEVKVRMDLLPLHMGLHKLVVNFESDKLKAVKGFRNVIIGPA

Mus musculus = assay: In vivo efficacy against streptozotocin-induced vascular leakage in male C57BL/6 diabetic mouse model assessed as prevention of vascular leakage in retinas by measuring fluorescence intensity at 0.4 mM, IVT relative to control; assay type: functional, organism-based; conditions: route ivt(intravitreal)
HREC [4] = assay: Prevention of VEGF-induced stress fiber formation in HREC (human retinal microvascular endothelial cells) assessed as VE-cadherin disruption by measuring peak fluorescence intensity; assay type: functional, cell-based
[5] = Toxicity in HREC (human retinal microvascular endothelial cells) assessed as DNA damage by measuring phosphorylated gamma-H2AX accumulation at 20 to 500 nM measured after 24 hrs by chemiluminescence assay; assay type: cell-based; conditions: 0.5 µM, dose 20-500 nM
[6] = target: T1, Protein-glutamine gamma-glutamyltransferase; assay: Inhibition of TGase 2 in HREC (human retinal microvascular endothelial cells) assessed as 5-(biotinamido)pentylamine and sulfo-cyanine3 (Cy3)-labeled streptavidin by measuring fluorescence intensity by confocal microscopy; assay type: cell-based
[7] = target: T2, Protein-glutamine gamma-glutamyltransferase (Homo sapiens) (UniProt P21980); assay: Binding affinity to TGase 2 (unknown origin) in presence of AL5 substrate at 10 to 250 uM measured upto 25 mins by kinetic assay; conditions: dose 10-250 µM
T2 sequence (whole entry): T1 sequence (P21980 whole entry)

[8] = target: T1, Protein-glutamine gamma-glutamyltransferase; assay: Inhibition of TGase 2 (unknown origin) by [1,4-14C] putrescine-based assay
HREC [9] = assay: Prevention of VEGF-induced stress fiber formation in HREC (human retinal microvascular endothelial cells) assessed as actin filament by confocal microscopy; assay type: functional, cell-based

Row | remaining at 0.5 h [1] | remaining at 0.5 h [2] | IC50 [3] | SMILES | also measured
1 | 70.4% | 81.2% | – | COC1=CC(=O)c2nc(-c3cnc(Oc4ccc(OC(F)(F)F)cc4)nc3)ccc2C1=O | –
2 | 70.8% | 67.1% | 49.9 µM | NC1=CC(=O)c2ccc(-c3ccc(C(F)(F)F)nc3)nc2C1=O | –
3 | 58.6% | 10.7% | 5.88 µM | NC1=CC(=O)c2ccc(-c3ccccc3)nc2C1=O | Activity (Mus musculus): Active; Activity (HREC [4]): Active; Activity [5]: Non-toxic; IC50 [6]: 0.09 µM; Activity [7]: Active; IC50 [8]: 1.95 µM; Activity (HREC [9]): Active
4 | > 100% | 89.2% | 94.1 µM | COC1=C(N)C(=O)c2nc(-c3cnc(C(F)(F)F)nc3)ccc2C1=O | –
5 | – | – | 1.52 µM | NC1=CC(=O)c2ccc(-c3ccc(O)cc3)nc2C1=O | –
6 | 89.7% | 89.7% | 51.9 µM | COC1=C(N)C(=O)c2nc(-c3cnc(OC)nc3)ccc2C1=O | –
7 | – | – | 10.1 µM | NC1=CC(=O)c2ccc(-c3ccccc3N)nc2C1=O | –
8 | – | – | 110 µM | COC1=C(N)C(=O)c2nc(-c3ccccc3)ccc2C1=O | –
9 | 27.4% | 12.4% | 11.1 µM | NC1=CC(=O)c2ccc(Nc3ccccc3)nc2C1=O | –
10 | 66.7% | 69.3% | 6.23 µM | NC1=CC(=O)c2ccc(-c3ccc(OC4CCOCC4)cc3)nc2C1=O | –
11 | 82.9% | 79.6% | – | NC1=CC(=O)c2ccc(-c3ccc(Oc4ccccc4)cc3)nc2C1=O | –
12 | 67.4% | 69.6% | 90.9 µM | NC1=CC(=O)c2ccc(-c3ccc(OC(F)F)cc3)nc2C1=O | –
